Laboratory results as given in PubChem BioAssay AID2060625 (Molecular Pharmacology Branch, DTP, NCI, 2025).

System: 186277-243-T-J2-PDC spheroids with HUVEC/MSC, viability
Test: Anticancer human tumor 186277-243-T-J2-PDC patient-derived colon adenocarcinoma cell line growth inhibition [CLK]
Conditions: for IC50: curve of first compound; for viability, T/C: stronger effect = lower value
Outline: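 Multi-cell-type spheroids combined patient-derived tumor cells with HUVEC endothelial cells and human mesenchymal stem cells. Paired agents were dosed in half-log steps down from about clinical Cmax, or from 10 microM where Cmax was unknown.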
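Also: compound exposure lasted seven days before readout.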
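For viability, T/C in this document: 100% = DMSO vehicle control wells.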

C=CC(=O)Nc1cc(Nc2nccc(-c3cn(C)c4ccccc34)n2)c(OC)cc1N(C)CCN(C)C + CN1CCN(c2cc(C(=O)Nc3cc4cc(-c5cnn(C)c5)ccc4cn3)ccn2)CC1
IC50 (second compound 0.0316 µM): > 300 nM | IC50 (second compound 0.1 µM): > 300 nM | IC50 (second compound 0.316 µM): < 0.949 nM | IC50 (second compound 1 µM): < 0.949 nM | IC50 (second compound 3.16 µM): < 0.949 nM | IC50 (second compound 10 µM): < 0.949 nM | viability, T/C (second compound 0.0316 µM, first compound 0.000949 µM): 92.1% | viability, T/C (second compound 0.0316 µM, first compound 0.003 µM): 92.6% | viability, T/C (second compound 0.0316 µM, first compound 0.00949 µM): 90.9% | viability, T/C (second compound 0.0316 µM, first compound 0.03 µM): 78.2% | viability, T/C (second compound 0.0316 µM, first compound 0.0949 µM): 83.8% | viability, T/C (second compound 0.0316 µM, first compound 0.3 µM): 82.2% | viability, T/C (second compound 0.1 µM, first compound 0.000949 µM): 87% | viability, T/C (second compound 0.1 µM, first compound 0.003 µM): 75.6% | viability, T/C (second compound 0.1 µM, first compound 0.00949 µM): 86.8% | viability, T/C (second compound 0.1 µM, first compound 0.03 µM): 92.3% | viability, T/C (second compound 0.1 µM, first compound 0.0949 µM): 70.9% | viability, T/C (second compound 0.1 µM, first compound 0.3 µM): 64% | viability, T/C (second compound 0.316 µM, first compound 0.000949 µM): 25.9% | viability, T/C (second compound 0.316 µM, first compound 0.003 µM): 26.1% | viability, T/C (second compound 0.316 µM, first compound 0.00949 µM): 25.2% | viability, T/C (second compound 0.316 µM, first compound 0.03 µM): 21.2% | viability, T/C (second compound 0.316 µM, first compound 0.0949 µM): 20.8% | viability, T/C (second compound 0.316 µM, first compound 0.3 µM): 14% | viability, T/C (second compound 1 µM, first compound 0.000949 µM): 0.45% | viability, T/C (second compound 1 µM, first compound 0.003 µM): 0.44% | viability, T/C (second compound 1 µM, first compound 0.00949 µM): 1.59% | viability, T/C (second compound 1 µM, first compound 0.03 µM): 0.36% | viability, T/C (second compound 1 µM, first compound 0.0949 µM): 0.85% | viability, T/C (second compound 1 µM, first compound 0.3 µM): 0.32% | viability, T/C (second compound 3.16 µM, first compound 0.000949 µM): 1.64% | viability, T/C (second compound 3.16 µM, first compound 0.003 µM): 1.27% | viability, T/C (second compound 3.16 µM, first compound 0.00949 µM): 2.11% | viability, T/C (second compound 3.16 µM, first compound 0.03 µM): 0.98% | viability, T/C (second compound 3.16 µM, first compound 0.0949 µM): 0.87% | viability, T/C (second compound 3.16 µM, first compound 0.3 µM): 0.74% | viability, T/C (second compound 10 µM, first compound 0.000949 µM): 0.65% | viability, T/C (second compound 10 µM, first compound 0.003 µM): 0.71% | viability, T/C (second compound 10 µM, first compound 0.00949 µM): 0.97% | viability, T/C (second compound 10 µM, first compound 0.03 µM): 0.86% | viability, T/C (second compound 10 µM, first compound 0.0949 µM): 0.61% | viability, T/C (second compound 10 µM, first compound 0.3 µM): 1.03%
